The nature of data set [1]: General cytotoxicity test on HepG2 cells. The format is cell-based. The settings on record: human, HepG2 cells; 72 h incubation; 200 to 0.78 µM; average values of several tests; read-out: Hep-G2 CC50, mkM. As to the method: Cell viability was assessed using the above method. Table 6. […] The results are presented as average values of activity obtained in several tests.

A further data set deals with MV4-11. Put plainly: Cell-based antiproliferative test (AlamarBlue), MV4-11. Particulars: Homo sapiens, MV4-11, 120 h, 120 h incubation; average values of several tests; read-out: MV-4-11 IC50, mkM.
Data set [2] in a line: Chemical stability in human blood plasma. The format is in vitro ADME. The settings on record: pooled human blood plasma; 10 µM; 4 hours at 37°C; substance amount in % after thermostatting. An outline of the steps:
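Pooled plasma from ten healthy human donors; compound diluted from 10 mM DMSO stock to 10 µm final and incubated 4 h at 37°C. After acetonitrile protein precipitation, HPLC peak areas before and after incubation were compared; value is % compound remaining.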

Data set [3] in a line: Enzyme stability in human liver S9 fractions. It counts as in vitro ADME. Particulars: pH 7.4; 0,5 mg/mL pooled human liver S9 fractions; 10 µM compound; 37°C; pH=7,4. As to the method: Measuring of candidates' enzyme stability enabled estimation of the stability of the present compounds towards the action of enzymes in human liver S9 fractions.
Enzyme degradation rate was measured by incubating the reaction mixture in a dry block thermostat at 37°C, said reaction mixture comprising 0,5 mg/mL of pooled human liver S9 fractions (XenoTech, USA, cat#H0610), 10 µM compound, 2 mM β-nicotinamide adenine dinucleotide (Carbosynth, UK, cat#NN10871) and 4 mM magnesium chloride in 0,1 M sodium-phosphate buffer, pH=7,4. The reaction was quenched with acetonitrile (100 µL of acetonitrile / 100 µL of the reaction mixture). After quenching, the samples were centrifuged at 10000 rpm for 10 minutes. Supernatant fluid was tested by chromatographic technique using Agilent1200 (Agilent, USA). Chromatographic analysis was performed in a gradient elution regime with a flow rate of 1 mL/min. A graph of the logarithm of substance's peak area as a function of time was made.

The test system of a further data set is KG-1. The data set can be described thus: Cell-based antiproliferative test (AlamarBlue), KG-1. The settings on record: Homo sapiens, KG-1; 120 h incubation; average values of several tests; read-out: KG-1 IC50, mkM.
Data set [4] can be described thus: Permeability through Caco-2 cell monolayer. It counts as in vitro ADME. Particulars: human, Caco-2; for Papp A→B at 2 h, 10 µM: A->B transfer, pH 6.5 -> pH 7.4, 2 hours at 37 °C; for efflux ratio at 2 h, 10 µM: efflux = Papp B-A / Papp A-B. An outline of the steps:
(§1)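 Caco-2 monolayers grown for 21 days (Lucifer Yellow integrity check) received 10 µM compound apically at pH 6.5 (A→B) or basolaterally at pH 7.4 with 1% BSA on the basolateral side (B→A). After 2 h at 37 °C, both chambers were quantified by HPLC. Efflux ratio = Papp B→A / Papp A→B.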
In general terms: Caco-2 cells form a polarised layer with tight junctions and transporters.

Another data set deals with Caco-2 cell monolayer. Put plainly: Permeability through Caco-2 cell monolayer. It counts as in vitro ADME. The settings on record: efflux = Papp B-A / Papp A-B. An outline of the steps:
as §1

Data set [5] is described as follows: Chemical stability in simulated gastric fluid (SGF). It counts as physicochemical. The settings on record: SGF without enzymes, pH=1,4; 10 µm; 2 hours at 37°C; substance amount in % after thermostatting. Put shortly: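 Compounds at […] (diluted from DMSO stock) were incubated for 2 h at 37 °C in enzyme-free simulated gastric fluid, pH=1,4. HPLC peak areas before and after incubation gave the % of compound remaining.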

Data set [6] in a line: Enzyme stability in human liver microsomes. The format is in vitro ADME. Particulars: pH 7.4; 0,5 mg/mL pooled human liver microsomes; 10 µM compound; 37°C; pH=7,4. Put shortly:
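Pooled human liver microsomes (0,5 mg/mL) incubated at 37 °C with 10 µM compound, 2 mM β-NAD and 4 mM MgCl2 in 0,1 M sodium phosphate, pH 7,4. Samples quenched with acetonitrile and analysed by HPLC. Elimination rate constant taken from the slope of log peak area versus time, giving t1/2 and CLint.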

Broadly, the CC50 is the concentration at which the toxic effect on the cells reaches its halfway point. Broadly, the IC50 is the concentration that gives 50% inhibition. The term microsomal CLint denotes the capacity of the preparation to metabolise the compound, expressed as a volume cleared per time. A low value points to greater metabolic stability. Usually Papp A→B stands for how fast a substance crosses the layer from the apical side. A low value points to poor permeation. As usually defined, the efflux ratio is a quotient of directional permeabilities that is used to spot active efflux. Regarding `Cn1cc(-c2ccc(-c3cnc(N)c4ncc(C(=O)NCCO)cc34)cc2)cn1` [CDK8-3-42, 8-Amino-N-(2-hydroxyethyl)-5-(4-(1-methyl-1H-pyrazol-4-yl)phenyl)-1,7-naphthyridine-3-carboxamide], the CC50 at 72 h in data set [1] is 15.9 µM. Moreover, the half-maximal inhibitory concentration (IC50) worked out at 0.028 µM with MV4-11 and 0.009 µM with KG-1. Besides, the “Stability in blood plasma, %” value in [2] is 100%. For the same compound, in data set [3], the microsomal CLint at 10 µM was found to be 0.5 µL/min/mg. In data set [4], this compound displayed a Papp A→B at 2 h, 10 µM of 11.8 ×10⁻⁶ cm/s. In addition, the efflux ratio at 2 h, 10 µM in data set [4] worked out at 1.6.

Take `COc1cc(-c2cnc3[nH]cc(C(=O)c4ccccn4)c3c2)ccc1N(C)C` [CDK8-4-21, (5-(4-(Dimethylamino)-3-methoxyphenyl)-1H-pyrrolo[2,3-b]pyridin-3-yl)(pyridin-2-yl)methanone]: in [1], the CC50 at 72 h worked out at 4.7 µM. In addition, the IC50 with MV4-11 is 0.74 µM. Moreover, the “Stability in blood plasma, %” value in data set [2] was 100%. The compound also came in with a Papp A→B at 2 h, 10 µM in [4] of 106 ×10⁻⁶ cm/s. In the data set with Caco-2 cell monolayer, this compound registered an efflux of 0.09. In [5], the “Stability in SGF, %” value is given as 100%.

With `COCCN(C)C(=O)c1cnc2c(N)ncc(-c3ccc(-c4cnn(C)c4)cc3)c2c1` [CDK8-3-32], the CC50 at 72 h in data set [1] was determined as 20.7 µM. Moreover, the IC50 with MV4-11 turned out to be 0.01 µM. The “Stability in blood plasma, %” value in data set [2] is on record as 100%. This compound displayed a microsomal CLint at 10 µM in data set [3] of 3.8 µL/min/mg. Also, the IC50 in the data set with KG-1 was less than 0.01 µM. Also, in data set [4], the Papp A→B at 2 h, 10 µM came out at 24.9 ×10⁻⁶ cm/s and the efflux ratio at 2 h, 10 µM is 0.7.

In the case of `COc1ccc(-c2cnc3[nH]cc(C(=O)c4cccnc4)c3c2)c(C#N)c1` [CDK8-4-28, 5-Methoxy-2-(3-nicotinoyl-1H-pyrrolo[2,3-b]pyridin-5-yl) benzonitrile], the CC50 at 72 h in data set [1] was more than 200 µM. Besides, the IC50 in the data set with MV4-11 is more than 1 µM. For the same compound, the “Stability in blood plasma, %” value in data set [2] is 100%. Further, the microsomal CLint at 10 µM in [6] is 6.8 µL/min/mg. For the same compound, in data set [4], the Papp A→B at 2 h, 10 µM was 68.9 ×10⁻⁶ cm/s. Besides, in the data set on Caco-2 cell monolayer, the efflux turned out to be 0.03. The “Stability in SGF, %” value in data set [5] is 100%.

Regarding `Cn1cc(-c2ccc(-c3cnc(N)c4ncc(C(=O)N5CCC5)cc34)cc2)cn1` [CDK8-3-26, (8-Amino-5-(4-(1-methyl-1H-pyrazol-4-yl)phenyl)-1,7-naphthyridin-3-yl) (azetidin-1-yl)methanone], the CC50 at 72 h in data set [1] came out at 4.9 µM. The IC50 in the data set on MV4-11 stood at 0.011 µM. Besides, the “Stability in blood plasma, %” value in [2] came to 95.8%. Further, the microsomal CLint at 10 µM in data set [3] turned out to be 3.25 µL/min/mg. For the same compound, the IC50 in the data set on KG-1 came to 0.003 µM. For the same compound, in [4], the Papp A→B at 2 h, 10 µM turned out to be 53.7 ×10⁻⁶ cm/s and the efflux ratio at 2 h, 10 µM was determined as 0.3.

These data come from patent EP3666770A1, “NOVEL HETEROCYCLIC COMPOUNDS AS CDK8/19 INHIBITORS” (Joint Stock Company "Biocad", priority 2017, dated 2019).
